Test results: patent US9776997B2, “3-aryl-substituted imidazo[1,2-A]pyridines and their use” (Bayer Pharma Aktiengesellschaft, priority 2013, dated 2017)
Several values for one entry are separate records, joined by “and”; a condition that tells them apart may be missing. Equal values may be shown once.

Biological target: T1, recombinant guanylate cyclase reporter cell line (Rattus norvegicus, UniProt P19686+P20595)
T1 construct: expressed in transfected cells; host or cells: recombinant reporter cell line
T1 sequence (P19686 1-690): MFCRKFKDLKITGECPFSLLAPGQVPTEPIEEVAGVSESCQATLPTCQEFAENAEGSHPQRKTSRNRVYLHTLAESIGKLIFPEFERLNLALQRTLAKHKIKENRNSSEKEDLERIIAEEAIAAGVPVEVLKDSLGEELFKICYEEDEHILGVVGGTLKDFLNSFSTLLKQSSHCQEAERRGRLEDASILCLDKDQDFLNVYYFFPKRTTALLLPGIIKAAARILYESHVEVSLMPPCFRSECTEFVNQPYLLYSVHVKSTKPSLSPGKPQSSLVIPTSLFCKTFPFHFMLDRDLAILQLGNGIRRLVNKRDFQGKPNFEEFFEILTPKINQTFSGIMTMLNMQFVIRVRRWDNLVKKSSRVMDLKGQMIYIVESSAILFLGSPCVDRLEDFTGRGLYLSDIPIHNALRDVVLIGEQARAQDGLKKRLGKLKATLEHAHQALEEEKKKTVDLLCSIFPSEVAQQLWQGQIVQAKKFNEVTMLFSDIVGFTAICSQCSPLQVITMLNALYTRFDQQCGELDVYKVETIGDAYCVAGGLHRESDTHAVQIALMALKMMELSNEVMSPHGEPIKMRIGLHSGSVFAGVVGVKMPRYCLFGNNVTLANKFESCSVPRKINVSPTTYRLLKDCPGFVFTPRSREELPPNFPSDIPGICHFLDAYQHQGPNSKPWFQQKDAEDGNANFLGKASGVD
T1 sequence (P20595 1-619): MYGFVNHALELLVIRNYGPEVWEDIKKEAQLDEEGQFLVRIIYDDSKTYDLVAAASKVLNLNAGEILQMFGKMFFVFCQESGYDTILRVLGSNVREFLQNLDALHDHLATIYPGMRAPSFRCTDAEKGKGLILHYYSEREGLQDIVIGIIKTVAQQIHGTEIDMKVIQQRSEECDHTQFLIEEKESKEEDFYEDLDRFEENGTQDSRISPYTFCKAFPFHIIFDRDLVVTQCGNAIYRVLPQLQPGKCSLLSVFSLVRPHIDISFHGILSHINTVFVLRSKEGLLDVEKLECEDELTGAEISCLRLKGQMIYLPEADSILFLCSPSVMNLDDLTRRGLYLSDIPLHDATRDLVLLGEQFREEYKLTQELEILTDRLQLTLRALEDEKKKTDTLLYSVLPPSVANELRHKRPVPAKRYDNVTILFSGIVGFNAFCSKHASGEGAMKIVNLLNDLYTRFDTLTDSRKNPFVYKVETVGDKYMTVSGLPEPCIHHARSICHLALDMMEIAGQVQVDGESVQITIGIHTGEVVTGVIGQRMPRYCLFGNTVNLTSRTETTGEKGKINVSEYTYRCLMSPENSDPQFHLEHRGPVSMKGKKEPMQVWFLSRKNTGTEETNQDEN
Test: Effect on a recombinant guanylate cyclase reporter cell line
Format: cell-based
Details: MEC = minimum effective concentration; in some cases mean values for individual determinations
Experimental: B-2. Effect on a Recombinant Guanylate Cyclase Reporter Cell Line
The cellular effect of the inventive compounds is determined using a recombinant guanylate cyclase reporter cell line, as described in F. Wunder et al., Anal. Biochem. 339, 104-112 (2005).
Representative MEC values (MEC=minimum effective concentration) for the inventive compounds are shown in the table below (in some cases as mean values for individual determinations): […]

`Cc1nc2c(OCC3CCCCC3)cccn2c1-c1nnc(CN2CCCC2=O)o1` [Example 71] gave an MEC of 3.0 µM.
`Cc1nc2c(OCc3c(F)cccc3F)cccn2c1-c1ccc(F)cc1` [Example 16, 8-[(2,6-difluorobenzyl)oxy]-3-(4-fluorophenyl)-2-methylimidazo[1,2-a]pyridine] gave an MEC of 1.0 µM.
Compound `Cc1cc(OCc2c(F)cccc2F)c2nc(C)c(-c3cnn(CCS(C)(=O)=O)c3)n2c1` [Example 96, 8-[(2,6-Difluorobenzyl)oxy]-2,6-dimethyl-3-{1-[2-(methylsulphonyl)ethyl]-1H-pyrazol-4-yl}imidazo[1,2-a]pyridine] has an MEC of 0.065 µM.
`Cc1nc2c(OCc3c(F)cccc3F)cccn2c1-c1cccc2[nH]ncc12` [Example 53] showed an MEC of 1.0 µM.
With `COCCc1nnc(-c2c(C)nc3c(OCC4CCCCC4)cccn23)o1` [Example 68] the MEC was 3.0 µM.
Compound `Cc1nc2c(OCc3c(F)cccc3F)cccn2c1-c1cccc(S(C)(=O)=O)c1` [Example 46] has an MEC of 0.2 µM.
In the case of `Cc1nc2c(OCc3c(F)cccc3F)cccn2c1-c1cnn(C)c1C` [Example 56], the MEC is reported as 3.0 µM.
With `Cc1cc(OCc2c(F)cccc2F)c2nc(C)c(-c3cnn(CC(C)(C)O)c3)n2c1` [Example 116, 1-(4-{8-[(2,6-Difluorobenzyl)oxy]-2,6-dimethylimidazo[1,2-a]pyridin-3-yl}-1H-pyrazol-1-yl)-2-methylpropan-2-ol] the MEC was 0.01 µM.
With `Cc1cc(OCc2c(F)cccc2F)c2nc(C)c(-c3cnn(CCN4CCOCC4)c3)n2c1` [Example 118, 8-[(2,6-Difluorobenzyl)oxy]-2,6-dimethyl-3-{1-[2-(morpholin-4-yl)ethyl]-1H-pyrazol-4-yl}imidazo[1,2-a]pyridine] the MEC was 0.03 µM.
`Cc1nc2c(OCC3CCCCC3)cccn2c1-c1nnc(C(C)O)o1` (stereo not drawn) [Example 65] gave an MEC of 3.0 µM.
`CCn1cc(-c2c(C)nc3c(OCc4c(F)cccc4F)cccn23)cn1` [Example 49] was tested, and the MEC was 0.3 µM.
`Cc1cc(OCc2c(F)cccc2F)c2nc(C)c(-c3cn(CC(C)(C)N)nc3C)n2c1.O=CO` [Example 127, 1-(4-{8-[(2,6-Difluorobenzyl)oxy]-2,6-dimethylimidazo[1,2-a]pyridin-3-yl}-3-methyl-1H-pyrazol-1-yl)-2-methylpropan-2-amine formate] was tested, and the MEC was 0.3 µM.
For `Cc1nc2c(OCc3c(F)cccc3F)cccn2c1-c1ccc2cn[nH]c2c1` [Example 51], the MEC was 0.3 µM.
`CCNc1nnc(-c2c(C)nc3c(OCc4c(F)cccc4F)cccn23)o1` [Example 57, 5-{8-[(2,6-Difluorobenzyl)oxy]-2-methylimidazo[1,2-a]pyridin-3-yl}-N-ethyl-1,3,4-oxadiazole-2-amine] showed an MEC of 1.0 µM.
`Cc1cc(OCc2c(F)cccc2F)c2nc(C)c(-c3cnn(C(C)CC(=O)O)c3)n2c1` (racemic) [Example 110, rac-3-(4-{8-[(2,6-difluorobenzyl)oxy]-2,6-dimethylimidazo[1,2-a]pyridin-3-yl}-1H-pyrazol-1-yl)butanoic acid] showed an MEC of 1.0 µM.
In the case of `Cc1nc2c(OCc3c(F)cccc3F)cccn2c1-c1ccc(F)c(CN2CCOCC2)c1` [Example 44, 8-[(2,6-difluorobenzyl)oxy]-3-[4-fluoro-3-(morpholin-4-ylmethyl)phenyl]-2-methylimidazo[1,2-a]pyridine], the MEC is reported as 3.0 µM.
`Cc1cc(OCc2c(F)cccc2F)c2nc(C)c(-c3cnn(CC(N)=O)c3)n2c1` [Example 115, 2-(4-{8-[(2,6-Difluorobenzyl)oxy]-2,6-dimethylimidazo[1,2-a]pyridin-3-yl}-1H-pyrazol-1-yl)acetamide] gave an MEC of 0.1 µM.
Work on `COC(=O)C1CC1n1cc(-c2c(C)nc3c(OCc4c(F)cccc4F)cc(C)cn23)cn1` (stereo not drawn) [Example 106] yielded an MEC of 0.3 µM.
In the case of `Cc1cc(OCc2c(F)cccc2F)c2nc(C)c(-c3ncn(CC(C)(C)N)n3)n2c1` [Example 129, 1-(3-{8-[(2,6-Difluorobenzyl)oxy]-2,6-dimethylimidazo[1,2-a]pyridin-3-yl}-1H-1,2,4-triazol-1-yl)-2-methylpropan-2-amine], the MEC is reported as 1.0 µM.
`COCc1nnc(-c2c(C)nc3c(OCC4CCCCC4)cccn23)o1` [Example 67] was tested, and the MEC was 3.0 µM.
`Cc1nc2c(OCc3c(F)cccc3F)cccn2c1-c1cccc(N2CCCCC2)c1` [Example 38, 8-[(2,6-difluorobenzyl)oxy]-2-methyl-3-[3-(piperidin-1-yl)phenyl]imidazo[1,2-a]pyridine] was tested, and the MEC was 3.0 µM.
`Cc1cc(OCc2c(F)cccc2F)c2nc(C)c(-c3cnn(C(C)C(=O)O)c3)n2c1` (stereo not drawn) [Example 109] gave an MEC of 0.3 µM.
`Cc1cc(OCc2c(F)cccc2F)c2nc(C)c(-c3cnn(CC(C)(C)N)c3)n2c1.Cl` [Example 117, 1-(4-{8-[(2,6-Difluorobenzyl)oxy]-2,6-dimethylimidazo[1,2-a]pyridin-3-yl}-1H-pyrazol-1-yl)-2-methylpropan-2-amine hydrochloride] showed an MEC of 0.1 µM.
`Cc1nc(C)n(Cc2nnc(-c3c(C)nc4c(OCC5CCCCC5)cccn34)o2)n1` [Example 72] showed an MEC of 3.0 µM.
Work on `Cc1nc2c(OCc3c(F)cccc3F)cccn2c1-c1cccc(Cl)c1` [Example 34, 3-(3-chlorophenyl)-8-[(2,6-difluorobenzyl)oxy]-2-methylimidazo[1,2-a]pyridine] yielded an MEC of 3.0 µM.
For `Cc1nc2c(OCc3c(F)cccc3F)cccn2c1-c1ccc2c(c1)COC2=O` [Example 23, 5-{8-[(2,6-difluorobenzyl)oxy]-2-methylimidazo[1,2-a]pyridin-3-yl}-2-benzofuran-1(3H)-one], the MEC was 1.0 µM.
For `Cc1cc(OCc2c(F)cccc2F)c2nc(C)c(-c3cnn(CC(=O)NC4CC4)c3)n2c1` [Example 113, N-Cyclopropyl-2-(4-{8-[(2,6-difluorobenzyl)oxy]-2,6-dimethylimidazo[1,2-a]pyridin-3-yl}-1H-pyrazol-1-yl)acetamide], the MEC was 0.03 µM.
Compound `Cc1cc(OCc2c(F)cccc2F)c2nc(C)c(-c3cn[nH]c3)n2c1` [Example 88, 8-[(2,6-difluorobenzyl)oxy]-2,6-dimethyl-3-(1H-pyrazol-4-yl)imidazo[1,2-a]pyridine] has an MEC of 0.01 µM.
Compound `COCCN(C)Cc1cc(-c2c(C)nc3c(OCc4c(F)cccc4F)cccn23)ccc1OC` [Example 27, N-(5-{8-[(2,6-difluorobenzyl)oxy]-2-methylimidazo[1,2-a]pyridin-3-yl}-2-methoxybenzyl)-2-methoxy-N-methylethanamine] has an MEC of 1.0 µM.
Compound `Cc1nc2c(OCc3c(F)cccc3F)cccn2c1-c1ccnc(-c2ccc(F)cc2)c1` [Example 59, 8-[(2,6-Difluorobenzyl)oxy]-3-[2-(4-fluorophenyl)pyridin-4-yl]-2-methylimidazo[1,2-a]pyridine] has an MEC of 1.0 µM.
Work on `Cc1ccc(-c2c(C)nc3c(OCc4c(F)cccc4F)cccn23)cc1` [Example 30, 8-[(2,6-difluorobenzyl)oxy]-2-methyl-3-(4-methylphenyl)imidazo[1,2-a]pyridine] yielded an MEC of 3.0 µM.
With `Cc1cc(OCc2c(F)cccc2F)c2nc(C)c(-c3cnn(CCc4c(C)n[nH]c4C)c3)n2c1` [Example 99, 8-[(2,6-Difluorobenzyl)oxy]-3-{1-[2-(3,5-dimethyl-1H-pyrazol-4-yl)ethyl]-1H-pyrazol-4-yl}-2,6-dimethylimidazo[1,2-a]pyridine] the MEC was 0.03 µM and 0.1 µM.
Work on `Cc1nc2c(OCc3c(F)cccc3F)cccn2c1-c1cccc(OC(F)(F)F)c1` [Example 24, 8-[(2,6-difluorobenzyl)oxy]-2-methyl-3-[3-(trifluormethoxy)phenyl]imidazo[1,2-a]pyridine] yielded an MEC of 1.0 µM.
In the case of `Cc1nn(C)cc1-c1c(C)nc2c(OCc3c(F)cccc3F)cccn12` [Example 55], the MEC is reported as 1.0 µM.
`Cc1cc(OCc2c(F)cccc2F)c2nc(C)c(-c3cnn(CCC(=O)NC4CC4)c3)n2c1` [Example 114, N-Cyclopropyl-3-(4-{8-[(2,6-difluorobenzyl)oxy]-2,6-dimethylimidazo[1,2-a]pyridin-3-yl}-1H-pyrazol-1-yl)propanamide] gave an MEC of 0.3 µM.
For `Cc1nc2c(OCc3c(F)cccc3F)cccn2c1-c1cnn(-c2cncc(F)c2)c1` [Example 122], the MEC was 3.0 µM.
